ChEMBL document CHEMBL2440076, “New triarylpyrazoles as broad-spectrum anticancer agents: design, synthesis, and biological evaluation” (Eur J Med Chem, 2013)

How the values were obtained:
T47D = assay: Growth inhibition of human T47D cells assessed as cell growth at 10 uM after 48 hrs by sulforhodamine B assay; assay type: functional; conditions: read-out: Activity
[1] = Growth inhibition of human Hs 578T cells assessed as cell growth at 10 uM after 48 hrs by sulforhodamine B assay; assay type: functional; conditions: read-out: Activity
UO-31 [2] = assay: Growth inhibition of human UO31 cells assessed as cell growth at 10 uM after 48 hrs by sulforhodamine B assay; assay type: functional; conditions: UO-31, 48 h, read-out: Activity
PC-3 = assay: Growth inhibition of human PC3 cells assessed as cell growth at 10 uM after 48 hrs by sulforhodamine B assay; assay type: functional; conditions: PC-3, 48 h, read-out: Activity
HCT-15 = assay: Growth inhibition of human HCT15 cells after 48 hrs by sulforhodamine B assay; assay type: functional; conditions: HCT-15, 48 h
NCI-H460 = assay: Growth inhibition of human NCI-H460 cells after 48 hrs by sulforhodamine B assay; assay type: functional; conditions: NCI-H460, 48 h
NCI-H23 = assay: Growth inhibition of human NCI-H23 cells after 48 hrs by sulforhodamine B assay; assay type: functional; conditions: NCI-H23, 48 h
HOP-62 [3] = assay: Growth inhibition of human HOP62 cells after 48 hrs by sulforhodamine B assay; assay type: functional; conditions: HOP-62, 48 h
SR = assay: Growth inhibition of human SR cells after 48 hrs by sulforhodamine B assay; assay type: functional
MOLT-4 = assay: Growth inhibition of human MOLT4 cells after 48 hrs by sulforhodamine B assay; assay type: functional; conditions: MOLT-4, 48 h
CCRF-CEM = assay: Growth inhibition of human CCRF-CEM cells after 48 hrs by sulforhodamine B assay; assay type: functional
SK-OV-3 = assay: Growth inhibition of human SKOV3 cells assessed as cell growth at 10 uM after 48 hrs by sulforhodamine B assay; assay type: functional; conditions: SK-OV-3, 48 h, read-out: Activity
[4] = Growth inhibition of human NCI-ADR-RES cells assessed as cell growth at 10 uM after 48 hrs by sulforhodamine B assay; assay type: functional; conditions: read-out: Activity
OVCAR-5 [5] = assay: Growth inhibition of human OVCAR5 cells assessed as cell growth at 10 uM after 48 hrs by sulforhodamine B assay; assay type: functional; conditions: OVCAR-5, 48 h, read-out: Activity
OVCAR-8 [6] = assay: Growth inhibition of human OVCAR8 cells assessed as cell growth at 10 uM after 48 hrs by sulforhodamine B assay; assay type: functional; conditions: OVCAR-8, 48 h, read-out: Activity
OVCAR-3 = assay: Growth inhibition of human OVCAR3 cells assessed as cell growth at 10 uM after 48 hrs by sulforhodamine B assay; assay type: functional; conditions: OVCAR-3, 48 h, read-out: Activity
U-251 [7] = assay: Growth inhibition of human U251 cells assessed as cell growth at 10 uM after 48 hrs by sulforhodamine B assay; assay type: functional; conditions: U-251, 48 h, read-out: Activity
SF-268 [8] = assay: Growth inhibition of human SF268 cells assessed as cell growth at 10 uM after 48 hrs by sulforhodamine B assay; assay type: functional; conditions: SF-268, 48 h, read-out: Activity
COLO 205 = assay: Growth inhibition of human COLO205 cells assessed as cell growth at 10 uM after 48 hrs by sulforhodamine B assay; assay type: functional; conditions: COLO 205, 48 h, read-out: Activity
NCI-H522 = assay: Growth inhibition of human NCI-H522 cells assessed as cell growth at 10 uM after 48 hrs by sulforhodamine B assay; assay type: functional; conditions: NCI-H522, 48 h, read-out: Activity
UO-31 [9] = assay: Growth inhibition of human UO31 cells after 48 hrs by sulforhodamine B assay; assay type: functional; conditions: UO-31, 48 h
CAKI-1 = assay: Growth inhibition of human CAKI-1 cells after 48 hrs by sulforhodamine B assay; assay type: functional; conditions: CAKI-1, 48 h
786-0 = assay: Growth inhibition of human 786-0 cells after 48 hrs by sulforhodamine B assay; assay type: functional; conditions: 786-0, 48 h
OVCAR-8 [10] = assay: Growth inhibition of human OVCAR8 cells after 48 hrs by sulforhodamine B assay; assay type: functional; conditions: OVCAR-8, 48 h
[11] = Growth inhibition of human NCI-ADR-RES cells after 48 hrs by sulforhodamine B assay; assay type: functional
OVCAR-5 [12] = assay: Growth inhibition of human OVCAR5 cells after 48 hrs by sulforhodamine B assay; assay type: functional; conditions: OVCAR-5, 48 h
OVCAR-4 = assay: Growth inhibition of human OVCAR4 cells after 48 hrs by sulforhodamine B assay; assay type: functional; conditions: OVCAR-4, 48 h
SK-MEL-5 = assay: Growth inhibition of human SK-MEL-5 cells after 48 hrs by sulforhodamine B assay; assay type: functional; conditions: SK-MEL-5, 48 h
MDA-MB-435 = assay: Growth inhibition of human MDA-MB-435 cells after 48 hrs by sulforhodamine B assay; assay type: functional, cell-based; conditions: MDA-MB-435, 48 h
M14 = assay: Growth inhibition of human M14 cells after 48 hrs by sulforhodamine B assay; assay type: functional; conditions: M14, 48 h
Malme-3M = assay: Growth inhibition of human MALME-3M cells after 48 hrs by sulforhodamine B assay; assay type: functional
U-251 [13] = assay: Growth inhibition of human U251 cells after 48 hrs by sulforhodamine B assay; assay type: functional; conditions: U-251, 48 h
SF-268 [14] = assay: Growth inhibition of human SF268 cells after 48 hrs by sulforhodamine B assay; assay type: functional; conditions: SF-268, 48 h
HOP-62 [15] = assay: Growth inhibition of human HOP62 cells assessed as cell growth at 10 uM after 48 hrs by sulforhodamine B assay; assay type: functional; conditions: HOP-62, 48 h, read-out: Activity
HL-60(TB) = assay: Growth inhibition of human HL-60(TB) cells assessed as cell growth at 10 uM after 48 hrs by sulforhodamine B assay; assay type: functional; conditions: HL-60, 48 h, read-out: Activity
[16] = read-out: LC50 (the source's name)

For `COc1cc(-c2nn(-c3cccc(NC(=O)Nc4cc(C(F)(F)F)cc(C(F)(F)F)c4)c3)cc2-c2ccncc2)ccc1Cl`, the growth at 10 µM (T47D) was 4.45%, the growth at 10 µM [1] was -25.8% and the growth at 10 µM (UO-31 [2]) was -29.2%. It also gave a growth at 10 µM (PC-3) of -55.2%, a GI50 (HCT-15) of 0.617 µM and an LC50 (HCT-15) of 4.33 µM. It also gave a TGI (HCT-15) of 1.64 µM, a GI50 (NCI-H460) of 0.558 µM and an LC50 (NCI-H460) of 16.3 µM. It also gave a TGI (NCI-H460) of 1.87 µM, a GI50 (NCI-H23) of 1.09 µM and an LC50 (NCI-H23) of 29.6 µM. For the same molecule, the TGI (NCI-H23) was 3.34 µM, the GI50 (HOP-62 [3]) was 0.855 µM and the TGI (HOP-62 [3]) was 1.59 µM. For the same molecule, the CC50 (HOP-62 [3]; [16]) was 2.95 µM, the GI50 (SR) was 1.08 µM and the TGI (SR) was 3.97 µM. It also gave a CC50 (SR; [16]) greater than 50 µM, a GI50 (MOLT-4) of 1.08 µM and a TGI (MOLT-4) of 4.48 µM. It also gave a CC50 (MOLT-4; [16]) greater than 50 µM, a GI50 (CCRF-CEM) of 0.498 µM and an LC50 (CCRF-CEM) greater than 50 µM. For the same molecule, the TGI (CCRF-CEM) was 2.79 µM, the growth at 10 µM (SK-OV-3) was -9.79% and the growth at 10 µM [4] was 1.11%. The growth at 10 µM (OVCAR-5 [5]) was 16.3%, the growth at 10 µM (OVCAR-8 [6]) was -12.7% and the growth at 10 µM (OVCAR-3) was -57.9%. The growth at 10 µM (U-251 [7]) was -81.8%, the growth at 10 µM (SF-268 [8]) was -46.3% and the growth at 10 µM (COLO 205) was -98.7%. The growth at 10 µM (NCI-H522) was -34.4%, the GI50 (UO-31 [9]) was 0.6 µM and the TGI (UO-31 [9]) was 1.28 µM. It also gave a CC50 (UO-31 [9]; [16]) of 2.73 µM, a GI50 (CAKI-1) of 0.993 µM and a TGI (CAKI-1) of 3.14 µM. The CC50 (CAKI-1; [16]) was 49.3 µM, the GI50 (786-0) was 0.95 µM and the TGI (786-0) was 2.02 µM. It also gave a CC50 (786-0; [16]) of 4.31 µM, a GI50 (OVCAR-8 [10]) of 0.524 µM and a TGI (OVCAR-8 [10]) of 3.98 µM. The CC50 (OVCAR-8 [10]; [16]) was greater than 50 µM, the GI50 [11] was 1.01 µM and the TGI [11] was 5.18 µM. The CC50 [11, 16] was greater than 50 µM, the GI50 (OVCAR-5 [12]) was 0.937 µM and the LC50 (concentration killing 50% of cells) (OVCAR-5 [12]) was 12 µM. For the same molecule, the TGI (OVCAR-5 [12]) was 2.47 µM, the GI50 (OVCAR-4) was 1.12 µM and the LC50 (concentration killing 50% of cells) (OVCAR-4) was greater than 50 µM. The TGI (OVCAR-4) was 9.64 µM, the GI50 (SK-MEL-5) was 0.694 µM and the LC50 (concentration killing 50% of cells) (SK-MEL-5) was 2.67 µM. For the same molecule, the TGI (SK-MEL-5) was 1.36 µM, the GI50 (MDA-MB-435) was 0.886 µM and the IC50 (MDA-MB-435) was 0.89 µM. For the same molecule, the TGI (MDA-MB-435) was 1.99 µM, the CC50 (MDA-MB-435; [16]) was 4.46 µM and the GI50 (M14) was 0.808 µM. For the same molecule, the LC50 (concentration killing 50% of cells) (M14) was greater than 50 µM, the TGI (M14) was 2.55 µM and the GI50 (Malme-3M) was 0.892 µM. It also gave an LC50 (concentration killing 50% of starting cells) (Malme-3M) of 7.68 µM, a TGI (Malme-3M) of 2.17 µM and a GI50 (U-251 [13]) of 0.59 µM. For the same molecule, the LC50 (concentration killing 50% of cells) (U-251 [13]) was 3.18 µM, the TGI (U-251 [13]) was 1.37 µM and the GI50 (SF-268 [14]) was 0.978 µM. For the same molecule, the TGI (SF-268 [14]) was 2.43 µM, the CC50 (SF-268 [14]; [16]) was greater than 50 µM and the growth at 10 µM (HOP-62 [15]) was -77.6%. It also gave a growth at 10 µM (HL-60(TB)) of -20.2%.
